Results on 14 compounds are retold here after ChEMBL document CHEMBL3352214, “Studies on indolizines. Evaluation of their biological properties as microtubule-interacting agents and as melanoma targeting compounds” (Eur J Med Chem, 2015).

SMILES strings stand for the structures.

One experiment is filed under the species Ovis aries. As to the kind of experiment: Inhibition of sheep brain tubulin polymerization at 100 uM by fluorescence assay.
The next experiment concerns MCF7. In words: Growth inhibition of human MCF7 cells at 10^-5 M after 48 hrs by SRB assay. Format: functional. To be noted: MCF7, 48 h, read-out: GI. Background: The SRB assay estimates cell density from bound dye.
For the next experiment, the system named is HL-60(TB). As to the kind of experiment: Growth inhibition of human HL-60(TB) cells at 10^-5 M after 48 hrs by SRB assay. Type of experiment: functional. To be noted: HL-60, 48 h, read-out: GI.
A further experiment concerns NCI-H522. As to the kind of experiment: Growth inhibition of human NCI-H522 cells at 10^-5 M after 48 hrs by SRB assay. Format: functional. To be noted: NCI-H522, 48 h, read-out: GI.
The nature of experiment [1]: Growth inhibition of human MOLT4 cells at 10^-5 M after 48 hrs by SRB assay. To be noted: MOLT-4, 48 h, read-out: GI. Type of experiment: functional.
Experiment [2] can be described thus: Growth inhibition of human HCT116 cells at 10^-5 M after 48 hrs by SRB assay. Format: functional. The note with it: HCT-116, 48 h, read-out: GI.
Experiment [3] in a line: Growth inhibition of human PC3 cells at 10^-5 M after 48 hrs by SRB assay. Format: functional. To be noted: PC-3, 48 h, read-out: GI.
For a further experiment, the system named is CAKI-1. As to the kind of experiment: Growth inhibition of human Caki1 cells at 10^-5 M after 48 hrs by SRB assay. The note with it: CAKI-1, 48 h, read-out: GI. Format: functional.
Experiment [4] in a line: Growth inhibition of human HCT15 cells at 10^-5 M after 48 hrs by SRB assay. Type of experiment: functional. The note with it: HCT-15, 48 h, read-out: GI.
The test system of a further experiment is SNB-75. As to the kind of experiment: Growth inhibition of human SNB75 cells at 10^-5 M after 48 hrs by SRB assay. Type of experiment: functional. To be noted: SNB-75, 48 h, read-out: GI.
The nature of experiment [5]: Growth inhibition of human HOP92 cells at 10^-5 M after 48 hrs by SRB assay. Type of experiment: functional. To be noted: HOP-92, 48 h, read-out: GI.
For a further experiment, the system named is A498. As to the kind of experiment: Growth inhibition of human A498 cells at 10^-5 M after 48 hrs by SRB assay. The note with it: A498, 48 h, read-out: GI. Type of experiment: functional.
The subject of another experiment is Malme-3M. As to the kind of experiment: Growth inhibition of human MALME-3M cells at 10^-5 M after 48 hrs by SRB assay. Type of experiment: functional. To be noted: read-out: GI.
Another experiment relates to MDA-MB-435. As to the kind of experiment: Growth inhibition of human MDA-MB-435 cells at 10^-5 M after 48 hrs by SRB assay. Type of experiment: functional. To be noted: MDA-MB-435, 48 h, read-out: GI.
Experiment [6] is described as follows: Growth inhibition of human SF295 cells at 10^-5 M after 48 hrs by SRB assay. Type of experiment: functional. To be noted: SF-295, 48 h, read-out: GI.
Experiment [7] can be described thus: Growth inhibition of human EKVX cells at 10^-5 M after 48 hrs by SRB assay. Format: functional. To be noted: read-out: GI.
A further experiment concerns T47D. In words: Growth inhibition of human T47D cells at 10^-5 M after 48 hrs by SRB assay. Type of experiment: functional. The note with it: Homo sapiens, T47D, 48 h; read-out: GI.

Consider `CCOC(=O)c1c(C(=O)OCC)c2cc(C)ccn2c1C(=O)c1cc(OC)c(OC)c(OC)c1`, for which the inhibition (usually the change of the read-out against control, counted positive when it falls) in the experiment listed under Ovis aries is 39%.

`COC(=O)c1c2c(O)nnc(-c3ccc(OC)cc3)c2n2cc(C)cc(C)c12` displayed an inhibition in the experiment filed under Ovis aries of 58%. Also, the inhibition of growth at 10 µM came to 6% in the experiment on MCF7; 7% in the experiment with HL-60(TB); 22% in the experiment on NCI-H522; 15% in experiment [1]; 2% in experiment [2]; 24% in experiment [3]. Also, the inhibition of growth at 10 µM worked out at 15% in the experiment on CAKI-1; 0% in experiment [4]; 19% in the experiment with SNB-75; 21% in experiment [5]; 45% in the experiment on A498; 0% in the experiment on Malme-3M. Also, the inhibition of growth at 10 µM in the experiment on MDA-MB-435 was 0%; in experiment [6], 2%.

Compound `CCOC(=O)c1c(C(=O)OCC)c2cc(N(C)C)ccn2c1C(=O)c1cc(OC)c(OC)c(OC)c1` had an inhibition in the experiment listed under Ovis aries of 26%.

In turn, `CCOC(=O)c1cc(C(=O)c2cc(OC)c(OC)c(OC)c2)n2cc(C)cc(C)c12` had an inhibition in the experiment listed under Ovis aries of 3%. The inhibition of growth at 10 µM in the experiment on MCF7 is 4%; in the experiment on HL-60(TB), 0%; in [7], 6%; with NCI-H522 it was 8%; in experiment [1] it was 0%; in experiment [2], 45%. Moreover, the inhibition of growth at 10 µM in experiment [3] came to 2%; in the experiment on CAKI-1 it was 13%; in experiment [4] it was 0%; with SNB-75 it was 11%; in experiment [5] it was 29%; with T47D it was 18%. The inhibition of growth at 10 µM in the experiment with Malme-3M is 25%; in the experiment on MDA-MB-435 it was 4%; in experiment [6] it was 3%.

As for `CCOC(=O)c1cc(C(=O)c2cc(OC)c(OC)c(OC)c2)n2ccc(C#N)cc12`, the inhibition in the experiment listed under Ovis aries is 13%.

In the experiment filed under Ovis aries, `COc1cc(C(=O)c2cc(C(=O)O)c3cccc(C)n23)cc(OC)c1OC` gave an inhibition of 28%. The inhibition of growth at 10 µM with MCF7 stood at 12%; in the experiment with HL-60(TB) it was 3%; in the experiment with NCI-H522, 15%; in [1], 7%; in [2] it was 0%; in experiment [3], 5%. In addition, the inhibition of growth at 10 µM turned out to be 0% with CAKI-1; 7% in experiment [4]; 9% in the experiment on SNB-75; 0% in the experiment on T47D; 2% in the experiment with A498; 0% with Malme-3M. The inhibition of growth at 10 µM (in the experiment on MDA-MB-435; in [6]) was 0% in each case.

On to `COC(=O)c1c(C(=O)OC)c2cc(OC)ccn2c1C(=O)c1cc(OC)c(OC)c(OC)c1`, for which the inhibition in the experiment filed under Ovis aries was 16%. Besides, the inhibition of growth at 10 µM was 0% with MCF7; 1% with HL-60(TB); 7% in experiment [7]; 4% in the experiment with NCI-H522; 0% in experiment [1]; 2% in experiment [2]. The inhibition of growth at 10 µM in the experiment with CAKI-1 turned out to be 2%; in experiment [4], 13%; in the experiment on SNB-75, 0%; in the experiment on T47D, 6%; in the experiment on A498, 0%; in the experiment with Malme-3M, 0%. Besides, the inhibition of growth at 10 µM in the experiment on MDA-MB-435 was found to be 4%; in experiment [6], 11%.

Turning to `COC(=O)c1c(C(=O)OC)c2c(C)cc(C)cn2c1C(=O)c1cc(OC)c(OC)c(OC)c1`, the inhibition in the experiment listed under Ovis aries was 36%.

Consider `CCOC(=O)c1cc(C(=O)c2cc(OC)c(OC)c(OC)c2)n2ccc(N(C)C)cc12`, for which the inhibition in the experiment filed under Ovis aries turned out to be 36%. Also, the inhibition of growth at 10 µM came to 7% in the experiment with MCF7; 8% with HL-60(TB); 9% in [7]; 0% in the experiment on NCI-H522; 7% in experiment [1]; 0% in [2]. Also, the inhibition of growth at 10 µM in experiment [3] came to 12%; with CAKI-1, 10%; in experiment [4] it was 0%; with SNB-75, 0%; with T47D it was 5%; with A498 it was 11%. The inhibition of growth at 10 µM was determined as 0% with Malme-3M, 5% in the experiment with MDA-MB-435 and 0% in experiment [6].

Regarding `CCOC(=O)c1c2c(O)nnc(-c3cc(OC)c(OC)c(OC)c3)c2n2cc(C)cc(C)c12`, the inhibition in the experiment listed under Ovis aries was determined as 43%. In addition, the inhibition of growth at 10 µM with MCF7 was 0%; in the experiment on HL-60(TB), 0%; in the experiment with NCI-H522 it was 1%; in [1] it was 0%; in experiment [2] it was 6%; in [3], 0%. Besides, the inhibition of growth at 10 µM was found to be 0% in the experiment with CAKI-1; 0% in experiment [4]; 5% with SNB-75; 0% in experiment [5]; 0% in the experiment on T47D; 15% with A498. Besides, the inhibition of growth at 10 µM (with Malme-3M; in the experiment on MDA-MB-435; in [6]) was 0% throughout.

In the case of `COC(=O)c1c(C(=O)OC)c2cccc(C)n2c1C(=O)c1cc(OC)c(OC)c(OC)c1`, in the experiment listed under Ovis aries, the inhibition worked out at 32%.

In the case of `COc1cc(C(=O)c2cc(C#N)c3c(C#N)cccn23)cc(OC)c1OC`, in the experiment filed under Ovis aries, the inhibition was found to be 39%. For the same compound, the inhibition of growth at 10 µM in the experiment with MCF7 is 29%; in the experiment on HL-60(TB), 7%; in the experiment with NCI-H522, 0%; in experiment [1], 0%; in [2] it was 11%; in experiment [3], 12%. For the same compound, the inhibition of growth at 10 µM in the experiment with CAKI-1 is 6%; in [4] it was 23%; in the experiment on SNB-75, 69%; in experiment [5], 8%; with T47D it was 10%; in the experiment with A498 it was 0%. Besides, the results for the inhibition of growth at 10 µM in the experiment on Malme-3M and with MDA-MB-435 were 28% and 54%, respectively.

The compound `COc1cc(C(=O)c2cc(C#N)c3cc(C#N)ccn23)cc(OC)c1OC` returned an inhibition in the experiment filed under Ovis aries of 46%. The inhibition of growth at 10 µM with MCF7 was 15%; with HL-60(TB), 20%; in the experiment on NCI-H522, 12%; in experiment [1], 2%; in experiment [2], 2%; in experiment [3] it was 8%. Further, the inhibition of growth at 10 µM in the experiment on CAKI-1 is 3%; in experiment [4], 21%; in the experiment on SNB-75, 7%; in experiment [5], 0%; with T47D, 6%; in the experiment on A498 it was 10%. The inhibition of growth at 10 µM with Malme-3M stood at 26%; with MDA-MB-435, 81%; in experiment [6], 4%.

Compound `CCOC(=O)c1cc(C(=O)c2cc(OC)c(OC)c(OC)c2)n2ccc3ccccc3c12` showed an inhibition in the experiment filed under Ovis aries of 41%.
